Values of other authors as cited in patent publication US20080268034A1, “Solid Oral Dosage Forms of Ziprasidone Containing Colloidal Silicone Dioxide” (priority 2005, published 2008).

solubility: very poor solubility
Structure (SMILES): O=C1Cc2cc(CCN3CCN(c4nsc5ccccc45)CC3)c(Cl)cc2N1 [Ziprasidone free base, 5-[2-[4-(1,2-benzisothiazol-3-yl)-1-piperazinyl]ethyl]-6-chloro-1,3-dihydro-2H-indol-2-one]
